The values that follow come from patent publication EP4806892A1, “CEREBLON E3 UBIQUITIN LIGASE INHIBITOR” (GAN & LEE PHARMACEUTICALS CO., LTD., priority 2023, dated 2025).

pIC50: −log10 of the molar value.

Type in all cases: cell-based
In assay [1] the target is T1, IRAK4 (Homo sapiens, UniProt Q9NWZ3).
T1 construct: The supernatant was carefully collected and analyzed for IRAK4 protein levels by immunoblotting; host or cells: THP-1
T1 sequence (Q9NWZ3 1-460): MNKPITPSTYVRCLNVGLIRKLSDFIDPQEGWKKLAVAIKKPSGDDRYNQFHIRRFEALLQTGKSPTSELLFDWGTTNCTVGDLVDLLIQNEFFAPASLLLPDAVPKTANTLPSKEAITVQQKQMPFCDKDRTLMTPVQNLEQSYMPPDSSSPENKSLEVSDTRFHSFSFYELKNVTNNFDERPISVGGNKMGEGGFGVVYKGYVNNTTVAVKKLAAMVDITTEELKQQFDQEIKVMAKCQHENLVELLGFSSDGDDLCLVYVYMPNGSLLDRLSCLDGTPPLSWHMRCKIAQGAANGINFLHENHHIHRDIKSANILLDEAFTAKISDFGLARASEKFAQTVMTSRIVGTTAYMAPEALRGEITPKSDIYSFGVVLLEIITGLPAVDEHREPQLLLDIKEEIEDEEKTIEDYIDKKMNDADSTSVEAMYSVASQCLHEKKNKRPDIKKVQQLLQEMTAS
Kind of assay: IRAK4 degradation in THP-1 cells (Western blot). Particulars: 24 hours. On the procedure:
2 mL of THP-1 cells were seeded into a 6-well cell culture plate at a density of 4 × 10^5 cells/well. After adding 1 µL of compound in dimethyl sulfoxide solution (final concentration 10-10,000 nM) and continuing to incubate at 37°C, 5% CO2 for 24 hours, cells were collected into 2 mL centrifuge tubes and centrifuged at 125 g at 4°C for 5 minutes. The cell pellet was washed once with 1 mL of pre-chilled 1× DPBS and resuspended and lysed in 50 µL of RIPA lysis buffer (P0013B, Beyotime) and 1× protease inhibitor cocktail (P1005, Beyotime). After incubation on ice for 20 minutes, the cells were centrifuged at 14,000 g at 4°C for 30 minutes. The supernatant was carefully collected and analyzed for IRAK4 protein levels by immunoblotting.
Western blotting: The total protein concentration in the collected cell lysate supernatant was determined using the BCA protein concentration assay kit (enhanced) (P0009, Beyotime). Based on the total protein concentration detected by BCA, the protein concentration was adjusted to 1 µg/µL using RIPA lysis buffer and 5× SDS-PAGE protein loading buffer (MB01015, GenScript). The protein was denatured in a 95°C water bath for 5 minutes. After denaturation, the condensed water on the centrifuge tube wall was collected by centrifugation and used as the loading sample. […] Electrophoresis was performed at 100 V for 20 minutes, then switched to 150 V for 40 minutes. After electrophoresis, the proteins in the SDS-PAGE gel were transferred to a PVDF membrane and transferred at a constant voltage of 100 V for 60 minutes. After transfer, the PVDF membrane corresponding to the IRAK4 protein and internal reference protein was cut and incubated in 1× QuickBlock blocking buffer (P0252, Beyotime) for 30 minutes at room temperature on a shaker. […] After incubation, the PVDF membrane was washed three times with 1× TBST buffer for 5 minutes each. […] The membrane was then washed again three times with 1× TBST buffer for 5 minutes each. Finally, the membrane was imaged using a dual-color infrared laser imaging system (Odyssey DLx, LI-COR). Protein maps were analyzed for grayscale values using Image Studio Lite software. The grayscale correction value for each sample was calculated using the formula: grayscale correction value = grayscale value of the target protein / grayscale value of the corresponding internal reference. The grayscale correction values of the compound group and the control group were then compared to calculate the degradation rate of the compound.
On the technique in general: A western blot detects proteins with antibodies after separation by electrophoresis.

Assay [2] deals with TNFα. Kind of assay: LPS-induced TNFα secretion by PBMC (HTRF detection). To be noted: Homo sapiens, hPBMC, 20 hours compound then LPS 200 ng/mL for 5 hours, read-out: IC50 (inhibition of LPS-induced TNFα). The procedure: (§1) After thawing, cryopreserved hPBMC (FPB003F-C, Shanghai OriBiotech) cells were resuspended in RPMI 1640 medium (30-2001,ATCC) containing 10% inactivated FBS (10099141C, Gibco) and cultured overnight at 37°C and 5% CO2. The next day, hPBMC cells were seeded in a 96-well cell culture plate at a density of 2 × 10^5 cells/well/100 µL (2 × 10^6 cells/mL), and 100 µL of compound in dimethyl sulfoxide solution (final concentration 0.0064-2500 nM) was added. […] The cell plate was placed in a 37°C, 5% CO2 incubator for 5 hours, and then centrifuged at 1000 rpm for 15 minutes. 100 µL of cell supernatant was collected from each well for cytokine concentration testing, which was tested immediately or frozen at -80°C for testing.
The TNFα concentration in the supernatant of LPS-induced THP-1 cells was determined using the TNF […] detection kit (62[…], PerkinElmer).
TNFα standard solutions of varying concentrations were prepared according to the product instructions, ranging from 0 to 2500 pg/mL. Equal volumes of Eu Cryptate antibody (1×) and d2 antibody (1×) were used to prepare the antibody mixture. 16 µL of standard solution or sample supernatant and 4 µL of the antibody mixture were added to each well of a 384-well white plate. The mixture was centrifuged at 800 rpm for 1 minute and incubated at room temperature for 2 hours. The absorbance at 620 nm and […] was read using a microplate reader (SPARK m1000pro, TECAN). A standard curve was plotted using the signal values of each TNFα standard solution. The TNFα concentration in each sample was determined based on the corresponding concentration of the signal value on the standard curve. The inhibitory rate of the compound on LPS-induced TNFα expression in THP-1 cell supernatants at different drug concentrations was calculated based on the TNFα concentration. The inhibition rate data were plotted in GraphPad Prism 8.0 software, and the IC50 value was calculated. Inhibition Rate = [1−(OD(Sample)−OD(Blank))/(OD(Control)−OD(Blank))] × 100% [formula] Table 9: Degradation effect of example compounds on IRAK4 in PBMC cells
Background: TR-FRET usually uses a lanthanide donor and a delayed reading to cut background.

Assay [3] has as its system IL-6. Kind of assay: LPS-induced IL-6 secretion by hPBMC (ELISA). To be noted: Homo sapiens, 20 h compound then LPS 200 ng/mL for 5 h; for inhibition at […]: 2500nM, read-out: Inhibition Rate of IL-6 (2500nM). The procedure:
as §1, with “OriBiotech.)” for “OriBiotech)”, “(30-2001, ATCC)” for “(30-2001,ATCC)”, “h,” for “hours,”, “min.” for “minutes.”, “awhich” for “which”
The IL-6 concentration in the supernatant of hPBMC cells induced by LPS was determined using a Human IL-6 ELISA kit (D6050, RD).
IL-6 standard solutions of varying concentrations were prepared according to the product instructions, ranging from 0 to 300 pg/mL. 100 µL of Assay Diluent RD1W and 100 µL of standard solution or sample supernatant were added to a pre-coated ELISA plate and incubated at room temperature for 2 hours. After washing the plate four times with 1× wash buffer, then 200 µL of Human IL-6 Conjugate was added and incubated at room temperature for 2 hours. After washing the plate four times with 1× wash buffer, then 200 µL of Substrate Solution was added and incubated at room temperature for 20 minutes. Finally, 50 µL of Stop Solution was added to terminate the reaction. The absorbance at 450 nm and 570 nm were read using a microplate reader (SPARK m1000pro, TECAN). The standard curve was plottd by the signal value of each concentration of IL-6 standard solution, and the IL-6 concentration in each sample was determined according to the corresponding concentration of the signal value of each well on the standard curve. The inhibition rate of the compound on LPS-induced IL-6 in the hPBMC cell supernatant at different drug concentrations was calculated according to the IL-6 concentration. The inhibition rate data were plotted in GraphPad Prism 8.0 software to calculate the IC50 value. Inhibition Rate = [1−(OD(sample)−OD(blank))/(OD(control)−OD(blank))] × 100% [formula] Table 10: Inhibitory effect of Example compounds on LPS-induced IL-6 secretion by hPBMC
A general note: ELISA stands for enzyme-linked immunosorbent assay.

On to `O=C1CCN(c2ccc3c(c2)OCC[C@H]2CN(C[C@H]4CC[C@@H](OC5CCN(C(=O)[C@H]6CC[C@H](n7cc(NC(=O)c8cnn9ccc(N%10C[C@H]%11C[C@@H]%10CO%11)nc89)c(C(F)F)n7)CC6)CC5)CC4)CCN32)C(=O)N1` [IR-P-1], for which, in assay [1], the “IRAK4 degradation (10nM)” value is reported as “B (50% > degradation rate ≥ 20%)” and the “IRAK4 degradation (100nM)” value is “B (50% > degradation rate ≥ 20%)”. Besides, in assay [2], the pIC50 (usually −log10 of the IC50, conventionally taken in molar units) was 7.10. The inhibition – broadly, the relative decrease from the control value, in per cent – at […] in assay [3] stood at 87%.

Regarding `O=C1CCN(c2ccc3c(c2)OCC[C@@H]2CN(C[C@H]4CC[C@@H](OC5CCN(C(=O)[C@H]6CC[C@H](n7cc(NC(=O)c8cnn9ccc(N%10C[C@H]%11C[C@@H]%10CO%11)nc89)c(C(F)F)n7)CC6)CC5)CC4)CCN32)C(=O)N1` [IR-P-2], in assay [1], the “IRAK4 degradation (10nM)” value was “B (50% > degradation rate ≥ 20%)” and the “IRAK4 degradation (100nM)” value is “B (50% > degradation rate ≥ 20%)”. For the same compound, the pIC50 in assay [2] was 6.74. The inhibition at […] in assay [3] was 86%.

As to `O=C1CCN(c2ccc3c(c2)OCC[C@H]2CN(C[C@H]4CC[C@H](OC5CCN(C(=O)[C@H]6CC[C@H](n7cc(NC(=O)c8cnn9ccc(N%10C[C@H]%11C[C@@H]%10CO%11)nc89)c(C(F)F)n7)CC6)CC5)CC4)CCN32)C(=O)N1` [IR-P-3], in assay [1], the “IRAK4 degradation (10nM)” value is recorded as “A (a degradation rate ≥ 50%)” and the “IRAK4 degradation (100nM)” value is given as “A (a degradation rate ≥ 50%)”. Also, the negative-log IC50 (pIC50) in assay [2] is 7.19. Further, in assay [3] (20nM, read-out: Inhibition Rate of IL-6 (20nM)), the inhibition at 0.02 µM was 63%. Also, the inhibition at […] in assay [3] amounted to 89%.

For the compound `O=C1CCN(c2ccc3c(c2)OCC[C@@H]2CN(C[C@H]4CC[C@H](OC5CCN(C(=O)[C@H]6CC[C@H](n7cc(NC(=O)c8cnn9ccc(N%10C[C@H]%11C[C@@H]%10CO%11)nc89)c(C(F)F)n7)CC6)CC5)CC4)CCN32)C(=O)N1` [IR-P-4], in assay [1], the “IRAK4 degradation (10nM)” value is recorded as “B (50% > degradation rate ≥ 20%)” and the “IRAK4 degradation (100nM)” value is given as “A (a degradation rate ≥ 50%)”. Moreover, in assay [2], the pIC50 is 6.85. Moreover, the inhibition at […] in assay [3] was 84%.

For the compound `O=C1CCN(c2ccc3c(c2)OC2(CC3)CN(CC3CCN(C(=O)[C@H]4CC[C@H](n5cc(NC(=O)c6cnn7ccc(N8C[C@H]9C[C@@H]8CO9)nc67)c(C(F)F)n5)CC4)CC3)C2)C(=O)N1` [IR-P-5], in assay [1], the “IRAK4 degradation (10nM)” value is “B (50% > degradation rate ≥ 20%)”. The pIC50 in assay [2] is 7.16. Also, in assay [3], the inhibition at […] was found to be 78%.
